Source: patent US20100167275A1, “Potassium channel mutants of the yeast Saccharomyces cerevisiae and their use for screening eukaryotic potassium channels” (sanofi-aventis Deutschland GmbH, priority 2000, published 2010)
Values joined by “and” are separate entries in the source; they are usually repeats but may differ in a detail not shown here. Identical values can stand only once.

What was measured:
gpIRK1 = target: T1, gpIRK1 (Cavia porcellus, UniProt P52185); assay: Complementation of growth deficiency by gpIRK1 in the presence of CsCl; type: cell-based, guinea pig; details: 2 mM CsCl
T1 construct: expressed in transfected cells; host or cells: Saccharomyces cerevisiae Δtrk1 Δtrk2 (YM193) and Δtrk1 Δtrk2 Δtok1 (YM198), vector p423-GPD3
T1 sequence (P52185 1-427): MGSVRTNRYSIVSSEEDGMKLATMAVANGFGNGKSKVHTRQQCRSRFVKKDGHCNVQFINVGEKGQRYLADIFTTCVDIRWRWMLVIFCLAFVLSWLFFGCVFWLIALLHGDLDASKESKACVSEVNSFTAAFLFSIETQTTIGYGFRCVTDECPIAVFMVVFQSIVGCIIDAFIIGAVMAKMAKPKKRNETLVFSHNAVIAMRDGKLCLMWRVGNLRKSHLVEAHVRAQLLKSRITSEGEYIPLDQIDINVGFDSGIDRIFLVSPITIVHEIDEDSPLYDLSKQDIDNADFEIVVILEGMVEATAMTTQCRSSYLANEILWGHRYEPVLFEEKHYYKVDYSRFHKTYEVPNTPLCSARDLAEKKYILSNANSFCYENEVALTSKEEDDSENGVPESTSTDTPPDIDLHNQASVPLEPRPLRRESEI
Source text: (§1) Each of the strains YM168 (Δtrk1 Δtrk2) and YM182 (Δtrk1 Δtrk2 Δtok1) was transformed with the human potassium channels Kv1.5 ((Fedida, D. et al, 1998); YM190 and YM195) and HERG1 ((Fedida, D. et al., 1998); YM191 and YM196) in p423-GPD3, respectively, as yeast expression vector. gpIRK1 ((Tang, W. et al., 1995); YM193 and YM198) acted as positive control in p423-GPD3 as yeast expression vector (Mumberg, D. et al., 1995; Ronicke, V. et al., 1997). The blank vector p423-GPD3 (YM189 and YM194) acted as negative control. The transformed yeast strains were plated onto (−)HIS/80 mM KCl medium. After this, patches of single colonies were replica-plated onto DPM/5 mM KCl (pH 6.5) to check the capacity of complementing the potassium deficiency.

human Kv1.5 channel = target: T2, human Kv1.5 channel (Homo sapiens, UniProt P22460, DEL187-187/DEL55-55/P188G/P307A/R154P); assay: Complementation of growth deficiency by Kv1.5 in the presence of activators; type: cell-based; details: 2 mM CsCl
T2 construct: expressed in transfected cells; host or cells: Saccharomyces cerevisiae Δtrk1 Δtrk2 Δtok1 (YM195; also Δtrk1 Δtrk2 YM190), vector p423-GPD3
Source text: as §1
(§2) Kv1.5: Rb^+ extends the hyperpolarization phase. This means that the inwardly directed K^+ flux is more prolonged and increases the possibility of complementing the growth deficiency.
The yeast strains YM 194 and YM 195 were tested in DPM/-HIS/5 mM KCl with 1 mM RbCl for the different growth behavior in liquid medium. To this end, 10 ml of overnight culture were set up in DPM/-HIS/80 mM KCl and, next morning, brought to an OD600 of 0.05 with the relevant media (final volume: 20 ml). The optical density at 600 nm was determined at defined intervals with the aid of a photometer.

human HERG1 channel = target: T3, human HERG1 channel (Homo sapiens, UniProt Q12809); assay: Complementation of growth deficiency by HERG1 on culture plates in the presence of activators; type: cell-based; details: 2 mM CsCl, DPM 5 mM KCl pH 6.5, FIG. 4
T3 construct: expressed in transfected cells; host or cells: Saccharomyces cerevisiae Δtrk1 Δtrk2 Δtok1 (YM182 background; strain YM196), vector p423-GPD3
Source text: as §1, §2
HERG: Cs^+ extends the hyperpolarization phase. This means that the inwardly directed K^+ flux is more prolonged and increases the possibility of complementing the growth deficiency. This channel is inhibited by Cs^+. IRK1: Cs^+ blocks this channel.

[1] = target: human potassium channel HERG1 (Homo sapiens, UniProt Q12809)
Protocol: FIG. 7: Expression of the human potassium channel HERG1 in the triple mutant Δtrk1Δtrk2Δtok1 in DPM-HIS/-TRP 5 mM KCl medium in 96-well ELISA plates in the presence of 0.5 mM CsCl as activator.
(§3) The various inhibitors were employed at a final concentration of in each case 30 μM. To measure the cell density, a commercially available LacZ reporter system pYX232 by Ingenius (cat. No. MBV-032-10) was transformed into the yeast strains to be studied. Expression of the LacZ reporter gene was under the control of the constitutive Saccharomyces cerevisiae promotor TPI for the triose phosphate isomerase gene. The LacZ enzyme activity was measured via detecting the luminescence after 24 hours' growth (density of the starter culture: 0.01 OD620) using a commercially available assay system by TROPIX. The values correspond to the average of in each case 4 measurements±SD. The two different assays were carried out independently of each other on two different days.
FIG. 8: Expression of the human potassium channel HERG1 in the triple mutant Δtrk1Δtrk2Δtok1 in DPM-HIS 5 mM KCl medium in 96-well ELISA plates in the presence of 0.5 mM CsCl as activator.
The various inhibitors were employed at a final concentration of in each case 30 μM. The cell density was measured after 38 hours' growth (density of the starter culture: 0.03 OD620) via determination of the optical density at a wavelength of 620 nm. The values corresponded to the average of in each case 4 measurements±SD.
All growth assays in the triple mutant Δtrk1Δtrk2Δtok1 were carried out in growth medium DPM (defined potassium medium) at the pH and the potassium concentration stated in each case.
(§4) All substances, dissolved in DMSO, were employed in a final concentration of 30 μM. As a control, cells were measured with the same final concentration of 0.5% DMSO without substance, without DMSO addition or without substance.

[2] = system: Saccharomyces cerevisiae wild-type strain; assay: Growth of wild-type strain in DPM medium with 5 mM or 80 mM KCl, OD 620 nm; type: cell-based; details: 30 μM
Source text: However, the present results could not exclude that the inhibitory effect found for these substances can possibly also be attributed to an inhibition of other proteins which are essential for the growth of yeast cells. […]

[3] = system: Saccharomyces cerevisiae wild-type strain; type: cell-based; details: 30 μM, wild-type cells, DPM -HIS/-TRP, 0.5 mM CsCl, 24 hours growth, TROPIX kit
Protocol: as §3, with “FIG. 9: Growth of the Saccharomyces cerevisiae wild-type strain in DPM-HIS/-TRP 5 mM KCl medium in 96-well ELISA plates in the presence of 0.5 mM CsCl. The various” for “The various”, “by TROPIX.” for “by TROPIX. The values correspond to the average of in each case 4 measurements±SD. The two different assays were carried out independently of each other on two different days.”
The values correspond to the average of in each case 4 measurements±SD. The two different assays were carried out independently of each other on two different days.
as §4

[4] = wild-type cells, DPM, 5 mM KCl, 24 hours growth, starting culture 0.01 OD
[5] = wild-type cells, DPM, 80 mM KCl, 24 hours growth, starting culture 0.01 OD

human potassium channel HERG1, sequence (Q12809 whole entry): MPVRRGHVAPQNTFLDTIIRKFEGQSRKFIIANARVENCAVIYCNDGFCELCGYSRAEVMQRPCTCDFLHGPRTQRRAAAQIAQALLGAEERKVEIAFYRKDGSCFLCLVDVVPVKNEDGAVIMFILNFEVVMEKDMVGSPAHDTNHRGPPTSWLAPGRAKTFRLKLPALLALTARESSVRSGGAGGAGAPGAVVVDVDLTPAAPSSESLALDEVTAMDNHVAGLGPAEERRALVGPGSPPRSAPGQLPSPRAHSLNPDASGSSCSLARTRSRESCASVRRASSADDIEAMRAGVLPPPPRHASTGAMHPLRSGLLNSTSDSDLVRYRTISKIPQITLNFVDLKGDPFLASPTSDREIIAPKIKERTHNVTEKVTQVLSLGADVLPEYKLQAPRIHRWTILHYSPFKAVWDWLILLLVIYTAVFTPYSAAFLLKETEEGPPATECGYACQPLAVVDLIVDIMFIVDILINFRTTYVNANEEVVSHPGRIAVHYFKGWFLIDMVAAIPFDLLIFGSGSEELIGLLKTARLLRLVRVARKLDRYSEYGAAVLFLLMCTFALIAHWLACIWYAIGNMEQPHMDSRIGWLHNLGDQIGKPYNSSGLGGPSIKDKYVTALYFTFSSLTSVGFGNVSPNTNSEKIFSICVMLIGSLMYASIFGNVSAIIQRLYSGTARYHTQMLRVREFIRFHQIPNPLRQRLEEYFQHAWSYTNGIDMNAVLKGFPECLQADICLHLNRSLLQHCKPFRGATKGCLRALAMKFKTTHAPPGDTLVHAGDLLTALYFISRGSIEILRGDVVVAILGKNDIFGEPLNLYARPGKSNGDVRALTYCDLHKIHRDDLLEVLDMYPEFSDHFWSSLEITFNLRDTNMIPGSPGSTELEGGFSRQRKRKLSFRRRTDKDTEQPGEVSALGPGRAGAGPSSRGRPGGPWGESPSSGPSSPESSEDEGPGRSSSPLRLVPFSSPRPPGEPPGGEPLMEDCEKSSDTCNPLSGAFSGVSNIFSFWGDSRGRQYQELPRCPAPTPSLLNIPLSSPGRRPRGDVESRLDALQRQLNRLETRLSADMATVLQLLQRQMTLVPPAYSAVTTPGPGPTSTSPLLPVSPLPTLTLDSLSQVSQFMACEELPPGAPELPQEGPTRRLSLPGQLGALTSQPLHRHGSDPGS
T3 sequence (Q12809 whole entry): as above
T2 sequence (P22460 with tags, fused parts or gaps DEL55-55/R154P/DEL187-187/P188G/P307A): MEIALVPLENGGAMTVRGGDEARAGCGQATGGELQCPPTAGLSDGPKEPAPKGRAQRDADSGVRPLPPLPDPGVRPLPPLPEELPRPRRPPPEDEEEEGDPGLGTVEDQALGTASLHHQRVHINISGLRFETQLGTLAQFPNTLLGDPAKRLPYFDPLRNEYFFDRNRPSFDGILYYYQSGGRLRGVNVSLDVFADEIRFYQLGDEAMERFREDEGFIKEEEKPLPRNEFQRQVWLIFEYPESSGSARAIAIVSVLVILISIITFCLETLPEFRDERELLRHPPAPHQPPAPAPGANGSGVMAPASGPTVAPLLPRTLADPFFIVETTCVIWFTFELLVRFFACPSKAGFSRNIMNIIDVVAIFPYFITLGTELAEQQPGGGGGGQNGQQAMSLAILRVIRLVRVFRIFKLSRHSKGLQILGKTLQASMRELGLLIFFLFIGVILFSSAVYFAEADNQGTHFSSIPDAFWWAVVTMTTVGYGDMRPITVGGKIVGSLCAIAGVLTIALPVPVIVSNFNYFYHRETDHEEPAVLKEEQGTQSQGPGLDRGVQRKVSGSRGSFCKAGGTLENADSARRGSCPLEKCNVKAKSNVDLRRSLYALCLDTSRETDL

[Cl-].[Cs+] [CsCl]
complementation of the growth deficiency by gpIRK1 in the presence of CsCl (gpIRK1): inhibited | complementation of the growth deficiency by Kv1.5 in the presence of CsCl (human Kv1.5 channel): inhibited | complementation of the growth deficiency of the Δtrk1 Δtrk2 Δtok1 mutant by human HERG1 in the presence of activator (human HERG1 channel): fully complementing

O=c1[nH]c2ccccc2n1C1CCN(CCCC(c2ccc(F)cc2)c2ccc(F)cc2)CC1 [Pimozide, 1-(4,4-bis(P-fluorophenyl)butyl)-4-(2-oxo-1-benzimidazolinyl)-piperidine]
Exp. 1 (growth, OD620 nm) [1]: 0.004 | Exp. 2 (growth, OD620 nm) [1]: 0.004 | Exp. 3 (growth, OD620 nm) [1]: 0.005 | Exp. 4 (growth, OD620 nm) [1]: 0.005 | Mean growth (OD620 nm) [1]: 0.0045 | complementation of the growth deficiency of the triple mutant by human HERG1 in the presence of the substance [1]: can no longer complement | toxic effect on yeast cells (Saccharomyces cerevisiae) ([2]; growth medium containing 80 mM KCl, FIG. 10): no generally toxic effect | growth OD 620 nm, 5 mM KCl, measurement 1 [2, 4]: 0.904 | growth OD 620 nm, 5 mM KCl, measurement 2 [2, 4]: 0.823 | growth OD 620 nm, 5 mM KCl, measurement 3 [2, 4]: 0.305 | growth OD 620 nm, 5 mM KCl, measurement 4 [2, 4]: 0.614 | 5 mM KCl (average growth, OD 620 nm) ([2]; wild-type cells, DPM, 5 mM KCl, 24 hours growth, starting culture 0.01 OD, average of 4): 0.6615 | growth OD 620 nm, 80 mM KCl, measurement 1 [2, 5]: 3.673 | growth OD 620 nm, 80 mM KCl, measurement 2 [2, 5]: 3.505 | growth OD 620 nm, 80 mM KCl, measurement 3 [2, 5]: 3.46 and 3.48 | growth OD 620 nm, 80 mM KCl, measurement 4 [2, 5]: 3.441 | 80 mM KCl (average growth, OD 620 nm) ([2]; wild-type cells, DPM, 80 mM KCl, 24 hours growth, starting culture 0.01 OD, average of 4): 3.5 and 3.52 | Exp. 1 (LacZ luminescence), ASSAY 1 ([3]; ASSAY 1): 357.4 | Exp. 2 (LacZ luminescence), ASSAY 1 ([3]; ASSAY 1): 747.9 | Exp. 3 (LacZ luminescence), ASSAY 1 ([3]; ASSAY 1): 804.6 | Exp. 4 (LacZ luminescence), ASSAY 1 ([3]; ASSAY 1): 585.4 | Mean growth (LacZ luminescence), ASSAY 1 ([3]; ASSAY 1, mean of 4): 623.825 | Exp. 1 (LacZ luminescence), ASSAY 2 ([3]; ASSAY 2): 905 | Exp. 2 (LacZ luminescence), ASSAY 2 ([3]; ASSAY 2): 2176 | Exp. 3 (LacZ luminescence), ASSAY 2 ([3]; ASSAY 2): 496.5 | Exp. 4 (LacZ luminescence), ASSAY 2 ([3]; ASSAY 2): 573.4 | Mean growth (LacZ luminescence), ASSAY 2 ([3]; ASSAY 2, mean of 4): 1037.725
